Experimental data: patent publication US9387213B2, “Small molecules inhibiting oncoprotein Myc” (Health Research, Inc., priority 2012, dated 2016)

Assays:
[1] = tested on: Myc+ fibroblasts (HO15.19 Myc-null cells with C-MYC re-expression); assay: Stable-isotope tracing, 13C labeling and uptake/secretion of metabolites; assay type: cell-based, rat; settings: 13C-glucose, 24 hrs, Myc+ cells treated
Procedure: Experiments were perform and data were analyzed as described in FIG. 14. Cellular measurements are mean±SD of 3 samples.

SK-Mel-103 xenografts [2] = assay: Preliminary in vivo testing CBL2.5-01-Ms-1, N77A7 in methylcellulose; parameters: species or system athymic nude mice; settings: after a week of ip injection, prepared in methylcellulose
Source text: N77A7 was identified in a small molecule library screen for inhibitors of the N-myc oncoprotein, which is involved in the pathogenesis of the childhood tumor neuroblastoma. The molecule is also effective against c-myc, a family member of N-myc that is overexpressed or amplified in a wide variety of tumors, including melanoma. In vitro, the effects of N77A7 on melanoma cells (e.g., SK-Mel-103) closely reflect the effects of myc shRNA on the same cells. In order to determine whether this in vitro effect can translate into an in vivo anti-tumor effect, we tested 50 mg/kg N77A7 administered daily ip against SK-Mel-103 xenografts established in athymic nude mice. […]

[3] = tested on: SK-Mel-103 melanoma cells
Procedure: One week following inoculation, treatment with 50 mg/kg N77A7 or Captisol vehicle control commenced. Treatment occurred daily by ip administration. Tumors were measured biweekly. Tumor volume was calculated using the formula tumor volume=L×W^2/2, where W=shortest dimension.
Our Myc inhibitors were tested for their effect against a panel of tumor cell lines, including neuroblastoma and melanoma that represent cell lines with aberrant N-myc and c-Myc expression, respectively. This panel of cell lines included the human neuroblastoma lines BE(2)C, IMR32 and NBL-WN (N-myc amplified), NBL-S (N-myc overexpression), SH-SY5Y (significant N- and c-Myc expression) and SH-EP (low levels c-Myc only) as well as two melanoma cell lines (#3 and #10-c-Myc overexpression) and normal melanocytes).

SK-Mel-103 xenografts [4] = assay: SK-Mel-103 xenograft efficacy study CBL2.5-01-Ms-2, N77A7 in Captisol; assay type: in vivo, athymic nude mice
Procedure: FIG. 9 illustrates the effect of N77A7 on survival of SK-Mel-103 tumor-bearing mice. […] When at least one tumor on the majority of mice reached ˜50 mm^3, mice were randomly divided into treatment groups. Starting on Day 1 of treatment, mice were treated daily by ip injection of either 50 mg/kg N77A7 or the equivalent amount of Captisol vehicle. Mice were followed until tumors reached 1000 mm^3 or tumors ulcerated or 28 days of treatment, whichever came first. The proportion of surviving mice is depicted in the graph. The survival of N77A7 and vehicle control-treated mice was compared using the Log Rank test. p-value<0.05 indicates significance.
FIG. 10 illustrates the effect of Captisol and N77A7 on mouse weight. (A) Mean change in body weight as determined by calculating the % starting weight, which is the weight of a mouse on Day X divided by the weight of the same mouse on Day 1 and multiplied by 100. […] (C)-(D) Changes in mouse weight for individual mice in each treatment group calculated as described in (A).
FIG. 11 illustrates the effect of 50 mg/kg N77A7 on tumor growth. (A) Athymic nude mice were inoculated with 1×10^6 SK-Mel-103 tumor cells in each rear flank. When at least one tumor on a mouse was ˜50 mg for the majority of mice, treatment commenced. Mice were treated once daily ip with 50 mg/kg N77A7 or an equivalent amount of vehicle control (i.e., Captisol). Tumors were measured by digital caliper on Day 1 and then twice per week thereafter. Tumor measurements were made blind to the treatment each mouse received. Data is presented as the mean tumor volume on each measurement day. Comparison of tumor volume between treatment groups was made using unpaired t-tests. P value <0.05 is significant. (B) Same as (A) except data is presented as mean fold tumor growth, which was calculated by dividing the mean tumor volume on Day X by that of the same tumor on Day 1.
FIG. 12 illustrates the effect N77A7 on tumor doubling time and the time to reach 1000 mm^3 Growth curves for each tumor within each treatment group were plotted (tumor volume vs days from start of treatment). Regression analysis using the exponential trendline in Excel was used to generate an equation for each curve. From the equation, the tumor doubling time (A) and the time to reach the experimental endpoint of 1000 mm^3 was calculated. Error bars represent the standard error of the mean and p values were obtained using unpaired, two-sided t-tests.
Animal study protocol CBL2.5-01-Ms-2. N77A7 formulated in Captisol was prepared. Both N77A7 and Captisol vehicle were prepared weekly according to the needs of the study. SK-Mel-103 melanoma cells (1×10^6 cells/inoculation were inoculated into each rear flank of 20 athymic nude (7.5 week old males) on Sep. 11, 2009. Prior to commencement of treatment, mice were randomly assigned to treatment groups with 2 of 4 mice per cage assigned to the Captisol vehicle control group and the other 2 mice to the 50 mg/kg N77A7 group. When at least one tumor per mouse for the majority of mice reached ˜50 mm^3 in tumor volume, treatment commenced. The first day of treatment (Day 1) was Sep. 21, 2009. Administration of N77A7 and vehicle control was performed daily by ip administration of 2.5 mg/ml solution of N77A7 or equivalent amount of vehicle control at 500 μl/25 g mouse body weight. Mouse body weight measurements were performed prior to commencement of treatment and Mondays-Wednesdays-Fridays thereafter. Administration volumes were adjusted during the course of the study based on the latest weight measurements. Treatments were administered. Tumor measurements were performed without prior knowledge of which treatment group each mouse belonged (i.e., blinded to treatment groups). When at least one tumor of a mouse reached 1000 mm^3 or tumor ulceration was evident, mice were euthanized according to the approved IACUC protocol (CBL 1096M). The experiment was completed on Day 18 (Oct. 8, 2009). […]

[5] = 50 mg/kg daily ip in Captisol, necropsy of several mice

CCN(CC)c1ccc(/C=N/NC(=O)Cn2nnc(-c3ccccc3)n2)c(O)c1 [Compound N77A7]
metabolic phenotype [1]: metabolic phenotype similar to Myc-null cells | peritonitis (SK-Mel-103 xenografts [2]): severe peritonitis | observable toxicity ([3]; mouse, in vivo): absence of any observable toxicity | tumor growth ([3]; preliminary, ½ maximum tolerated dose, melanoma xenograft, FIG. 7): reduced tumor growth compared to the vehicle control | treated mice remaining in the study (survival) (SK-Mel-103 xenografts [4]; 50 mg/kg daily ip in Captisol, after 14 days of treatment, all Captisol-treated mice euthanized, logrank P=0.0083): 5 of the 10 | compound precipitation at necropsy (SK-Mel-103 xenografts [4]; [5]): no signs of compound precipitation within the abdominal cavity | peritonitis at necropsy (SK-Mel-103 xenografts [4]; [5]): no signs of peritonitis | maximum tumor growth inhibition (SK-Mel-103 xenografts [4]; 50 mg/kg daily ip in Captisol, versus Captisol vehicle): ~45% | effect on mouse weight (SK-Mel-103 xenografts [4]; 50 mg/kg daily ip, 14 consecutive days of treatment): did not cause any weight loss | growth delay in reaching the study endpoint (1000 mm3) (SK-Mel-103 xenografts [4]; 50 mg/kg daily ip, from regression of growth curves, p=0.0004): 5 days | increase of doubling time for tumor growth (SK-Mel-103 xenografts [4]; 50 mg/kg daily ip, from regression of growth curves, p=0.0157): 1 days | starting tumors left in the study by Day 14 (SK-Mel-103 xenografts [4]; 50 mg/kg daily ip, control <50% (8/18)): 80%
